Assay results from paper PMC4417173 (2015).

Columns and labels:
[1] = test system: 5'-T8G4T G-quadruplex, (T8G4T)4 (DNA, G4) TTTTTTTTGGGGT; assay: UV-vis titration, Soret band 404 nm; details: 40 mM Tris-HCl pH 8.0, 1% DMF, 0.05% Triton X-100, 25 °C, 0.5 μM heme
[2] = test system: 5'-T8iG4T isoguanine quadruplex, (T8iG4T)4 (DNA, other, 2'-deoxyisoguanine at 9, 10, 11, 12 (written as G)) TTTTTTTTGGGGT; assay: UV-vis titration, Soret band; details: 20 mM KCl; 40 mM Tris-HCl pH 8.0, 1% DMF, 0.05% Triton X-100, 25 °C; highest DNA tested 70 μM
[3] = test system: 5'-T8iG4T isoguanine pentaplex, (T8iG4T)5 (DNA, other, 2'-deoxyisoguanine at 9, 10, 11, 12 (written as G)) TTTTTTTTGGGGT; assay: UV-vis titration, Soret band 404 nm; details: 20 mM NaCl; 40 mM Tris-HCl pH 8.0, 1% DMF, 0.05% Triton X-100, 25 °C; 0.5 μM heme

- Kd ([1]; 20 mM KCl): 7.89 ± 0.96 µM
- Kd ([1]; 20 mM NaCl): 3.22 ± 0.43 µM
- binding [2]: no
- Kd [3]: 1.28 ± 0.05 µM
SMILES: C=CC1=C(C)C2=Cc3c(C=C)c(C)c4[n]3[Fe]([Cl])[n]3c(c(C)c(CCC(=O)O)c3=CC3=NC(=C4)C(C)=C3CCC(=O)O)=CC1=N2
